Each structure is given as a SMILES string.

Assay [1] concerns the target Tyrosine-protein phosphatase YopH (Yersinia pseudotuberculosis serotype I (strain IP32953), UniProt P08538). Kind of assay: Inhibition of Yersinia pseudotuberculosis YopH.
For assay [2], the target named is T1, Tyrosine-protein phosphatase non-receptor type 1 (Homo sapiens, UniProt P18031).
T1 sequence (P18031 whole entry): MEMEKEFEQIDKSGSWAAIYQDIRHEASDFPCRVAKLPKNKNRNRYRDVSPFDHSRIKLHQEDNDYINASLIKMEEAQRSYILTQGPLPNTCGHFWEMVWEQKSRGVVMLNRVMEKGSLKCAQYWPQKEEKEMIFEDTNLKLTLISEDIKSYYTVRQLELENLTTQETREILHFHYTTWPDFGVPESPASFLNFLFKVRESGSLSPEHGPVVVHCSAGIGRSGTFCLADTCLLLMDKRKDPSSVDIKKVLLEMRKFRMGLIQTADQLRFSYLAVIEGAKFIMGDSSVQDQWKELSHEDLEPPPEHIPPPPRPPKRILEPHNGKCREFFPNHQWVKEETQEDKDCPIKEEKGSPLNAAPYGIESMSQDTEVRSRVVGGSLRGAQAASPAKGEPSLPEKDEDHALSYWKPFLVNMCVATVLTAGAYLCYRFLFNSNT
Kind of assay: Inhibition of PTP1B expressed in Escherichia coli BL21 (DE3) cells using p-nitrophenyl phosphate as substrate after 2 to 3 mins by spectrophotometric analysis.

Assay [3] concerns the target T2, Tyrosine-protein phosphatase non-receptor type 1 (Homo sapiens) (UniProt P18031).
T2 sequence (whole entry): T1 sequence (P18031 whole entry)
Kind of assay: Ratio of Ki for salicylic acid to compound Ki for PTP1B.

The nature of assay [4]: Selectivity ratio of Ki for PTP to Ki for PTP1B.
The species entered for a further assay is Homo sapiens. Description: Selectivity ratio of Ki for human recombinant TC-PTP to Ki for PTP1B.

Tyrosine-protein phosphatase YopH, sequence (P08538 whole entry): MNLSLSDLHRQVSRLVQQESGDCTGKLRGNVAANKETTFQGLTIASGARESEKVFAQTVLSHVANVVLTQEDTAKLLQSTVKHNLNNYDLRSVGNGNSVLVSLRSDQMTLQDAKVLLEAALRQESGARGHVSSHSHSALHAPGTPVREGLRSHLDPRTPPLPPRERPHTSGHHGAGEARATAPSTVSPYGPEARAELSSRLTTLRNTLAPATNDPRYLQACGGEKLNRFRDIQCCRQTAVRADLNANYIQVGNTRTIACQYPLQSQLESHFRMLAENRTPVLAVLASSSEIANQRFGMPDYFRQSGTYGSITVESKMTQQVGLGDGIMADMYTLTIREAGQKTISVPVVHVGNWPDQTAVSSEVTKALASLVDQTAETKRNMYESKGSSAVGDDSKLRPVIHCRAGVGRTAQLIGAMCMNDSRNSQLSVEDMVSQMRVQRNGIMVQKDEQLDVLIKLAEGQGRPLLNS

`O=C(O)c1cc2cc(O)ccc2cc1O`: inhibition in assay [1] was half-maximal at 60 µM (IC50).
Still for that read-out and setting: with `O=C(O)c1cc2cccc(O)c2cc1O` the figure was 18 µM.
On to `O=C(O)c1cc(NCn2c(=S)[nH]c3ccccc32)ccc1O`, for which the affinity in assay [2] corresponds to a Ki of 61 µM. This lies in the double-digit micromolar range.
For the compound `O=C(O)c1cc(NCn2c(S)nc3ccccc32)ccc1O`, the Ratio Ki in assay [3] came to 320.
`N[C@@H](Cc1ccc(C(F)(F)P(=O)(O)O)cc1)C(=O)O` [PHOSPHONODIFLUOROMETHYL PHENYLALANINE]: the Ratio Ki in assay [4] is 1000. The same compound gave a Ki in assay [2] of 0.0024 µM. In the assay listed under Homo sapiens, the Ratio came to 10.
On to `O=C(O)c1ccccc1O` [SALICYLIC ACID], for which the Ki in assay [2] is 19400 µM; in assay [1], 1000 µM.

The IC50 is the midpoint of a concentration-inhibition curve. Read a low IC50 as higher potency. One may read the Ki as the dissociation constant of the complex between target and ligand, obtained from inhibition or displacement.

The record behind these values is ChEMBL document CHEMBL2010728, “Bicyclic benzofuran and indole-based salicylic acids as protein tyrosine phosphatase inhibitors” (Bioorg Med Chem, 2012).
